Source: ChEMBL document CHEMBL2073934, “Functional characterization of the mouse organic-anion-transporting polypeptide 2” (Biochim Biophys Acta, 2002)
Where a SMILES comes first, the peptide text is derived from it. [ ]: non-standard residue; d: D form.

T1: Solute carrier organic anion transporter family member 1A4 (Mus musculus, UniProt Q9EP96)
T1 sequence (Q9EP96 whole entry): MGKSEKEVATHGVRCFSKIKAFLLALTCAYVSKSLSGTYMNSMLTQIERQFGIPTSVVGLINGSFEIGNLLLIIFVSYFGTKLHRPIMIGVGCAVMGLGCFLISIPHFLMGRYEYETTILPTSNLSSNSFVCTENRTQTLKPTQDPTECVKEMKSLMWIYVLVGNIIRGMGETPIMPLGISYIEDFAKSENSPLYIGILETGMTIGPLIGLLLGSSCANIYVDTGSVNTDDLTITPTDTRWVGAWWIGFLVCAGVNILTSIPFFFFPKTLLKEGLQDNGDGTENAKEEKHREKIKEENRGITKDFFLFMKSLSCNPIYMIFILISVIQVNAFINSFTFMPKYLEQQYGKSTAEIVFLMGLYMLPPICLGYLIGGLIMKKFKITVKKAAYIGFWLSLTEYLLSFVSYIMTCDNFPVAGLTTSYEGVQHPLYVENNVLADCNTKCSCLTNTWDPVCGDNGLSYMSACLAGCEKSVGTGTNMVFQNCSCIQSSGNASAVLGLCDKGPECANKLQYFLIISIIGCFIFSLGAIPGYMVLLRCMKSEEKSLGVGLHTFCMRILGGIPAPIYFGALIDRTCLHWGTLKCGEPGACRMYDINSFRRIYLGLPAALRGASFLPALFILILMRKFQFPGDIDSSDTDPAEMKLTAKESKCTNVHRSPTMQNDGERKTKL

B1: Solute carrier organic anion transporter family member 1A4 (Mus musculus) (protein)
chain: T1 sequence (Q9EP96 whole entry)

biological target: T1, Solute carrier organic anion transporter family member 1A4; test: (§1) TP_TRANSPORTER: uptake in Xenopus laevis oocytes; type: functional, cell-based; details: oocyte

Molecule	Activity
CC(C)C[C@@H]1NC(=O)[C@@H](C(C)C)NC(=O)[C@@H]2CCCN2C(=O)[C@@H](CC(=O)O)NC(=O)[C@@H](Cc2c[nH]c3ccccc23)NC1=O [BQ-123] (cyclo(L[dW][dD]P[dV]))	substrate [+]
C[C@]12CC[C@@H]3c4ccc(OS(=O)(=O)O)cc4CC[C@H]3[C@@H]1CCC2=O [ESTRONE SULFURIC ACID]	substrate [+]
C[C@@H]1O[C@@H](O[C@H]2C[C@@H](O)[C@]3(CO)[C@H]4[C@H](O)C[C@]5(C)[C@@H](C6=CC(=O)OC6)CC[C@]5(O)[C@@H]4CC[C@]3(O)C2)[C@H](O)[C@H](O)[C@H]1O [OUABAIN]	substrate [+]
C[C@]12CC[C@H](OS(=O)(=O)O)CC1=CC[C@@H]1[C@@H]2CC[C@]2(C)C(=O)CC[C@@H]12 [PRASTERONE SULFURIC ACID]	substrate [+]
O=C1OC(c2ccc(O)c(S(=O)(=O)[O-])c2)(c2ccc(O)c(S(=O)(=O)[O-])c2)c2c(Br)c(Br)c(Br)c(Br)c21.[Na+].[Na+] [SULFOBROMOPHTHALEIN SODIUM]	substrate [+]

substrate: C[C@H]1O[C@@H](O[C@H]2[C@@H](O)C[C@H](O[C@H]3[C@@H](O)C[C@H](O[C@H]4CC[C@@]5(C)[C@H](CC[C@@H]6[C@@H]5C[C@@H](O)[C@]5(C)[C@@H](C7=CC(=O)OC7)CC[C@]65O)C4)O[C@@H]3C)O[C@@H]2C)C[C@H](O)[C@@H]1O; test: as §1; type: functional, cell-based, Oocyte; details: not given

Molecule	Km [µM]
B1	5.7
